Patent US20030162662A1, “2-Phenyl-2h-pyridazine-3-ones” (priority 2000, published 2003)

Legend:
SETFA (Faber's foxtail) = assay: Greenhouse herbicidal action, postemergence treatment, SETFA; assay type: in vivo
Description: (§1) The herbicidal action of the 2-phenylpyridazin-3-one compounds of the formula I could be shown by means of greenhouse experiments: […]
(§2) The cultivation containers used were plastic pots containing loamy sand with approximately 3.0% of humus as a substrate. The seeds of the test plants were sown separately according to species.
(§3) For the purpose of postemergence treatment, the test plants were first raised up to a growth height of 3 to 15 cm, depending on growth form, and then treated with the active compounds suspended or emulsified in water. For this, the test plants were either sown directly and raised in the same containers or they were first raised separately as seedlings and transplanted into the experimental containers a few days before the treatment. The application rate for the postemergence treatment was 31.2 or 15.6 g of a.S./ha.
(§4) The plants were kept species-specifically at temperatures from 10-25° C. or 20-35° C. The experimental period extended over 2 to 4 weeks. During this time, the plants were tended, and their reaction to the individual treatments was assessed.
(§5) Assessment was carried out on a scale from 0 to 100. 100 here means no emergence of the plants or complete destruction of at least the above-ground parts and 0 means no damage or normal course of growth.
(§6) The plants used in the greenhouse experiments were made up of the following species: […]

BIDPI (common blackjack) = assay: Greenhouse herbicidal action, postemergence treatment, BIDPI; assay type: in vivo
Description: as §1, §2, §3, §4, §5, §6

SMILES | melting point | herbicidal action against SETFA (scale 0 to 100; 100 = complete destruction, 0 = no damage) (SETFA (Faber's foxtail); application rate 15.6 g/ha) | herbicidal action against SETFA (scale 0 to 100; 100 = complete destruction, 0 = no damage) (SETFA (Faber's foxtail); application rate 31.2 g/ha) | herbicidal action against BIDPI (scale 0 to 100; 100 = complete destruction, 0 = no damage) (BIDPI (common blackjack); application rate 15.6 g/ha) | herbicidal action against BIDPI (scale 0 to 100; 100 = complete destruction, 0 = no damage) (BIDPI (common blackjack); application rate 31.2 g/ha)
COC(=O)/C(Cl)=C/c1cc(-n2ncc(C(F)(F)F)c(C)c2=O)c(F)cc1Cl [Ib.2] | 121 to 123 °C |  |  |  | 
CCOC(=O)C(Cl)=Cc1cc(-n2ncc(C(F)(F)F)c(C)c2=O)c(F)cc1Cl [Ia.3, 2-[4-Chloro-2-fluoro-5-(2-ethoxycarbonyl-2-chloroethen-1-yl)-phenyl]-4-methyl-5-trifluoromethyl-2H-pyridazin-3-one] |  | 100% | 100% | 80% | 100%
Cc1c(C(F)(F)F)cnn(-c2cc(/C=C(\Cl)C(N)=O)c(Cl)cc2F)c1=O [Ib.30] | 128 to 129 °C |  |  |  | 
CCOC(=O)C=Cc1cc(-n2ncc(C(F)(F)F)c(C)c2=O)c(F)cc1Cl [Example I-658 of WO 97/07104, reference compound] |  | 80% |  | 30% | 30%
